Like-named read-outs stand apart in the source and are kept apart here.
Legend:
[1] = approximate values given by way of illustration; cited from earlier work
[2] = system: TOMATO; details: for % INJURY 7 DAT: rated 7 DAT; for % INJURY 10 DAT: rated 10 DAT; for % INJURY 14 DAT: rated 14 DAT; for % INJURY 21 DAT: rated 21 DAT; for % INJURY 28 DAT: rated 28 DAT
Source text: Reduction in herbicide volatility can be characterized using the procedure generally set forth in Penner U.S. Publication No. 2016/0255832, which includes a bioassay system for evaluating herbicide volatilization from plant substrates (e.g., using wheat and soybean plants or equivalent in a plant growth chamber with a selected adjuvant/herbicide composition including a volatile growth regulator herbicide and an aminopolycarboxylate salt). A wide range of soil, plant, environmental, and herbicide factors (e.g., vapor pressure and water solubility of herbicide, surface characteristics) can affect herbicide volatility from soils and plants. Comparison of the volatilization would be most readily visualized by appropriate bioassay systems. In the bioassay system, a herbicide composition including a volatile growth regulator herbicide (e.g., 2,4-D, dicamba, or otherwise) and optionally one or more adjuvants (e.g., including an aminopolycarboxylate salt or not) is applied foliarly to a target plant generally resistant to the herbicide (e.g., wheat plants, such as amber red wheat) or is applied to a target soil area without a target plant. Twenty minutes later, soybean plants (e.g., PIONEER 92M92 soybean plants) or other plants sensitive to the volatile growth regulator herbicide are placed in the middle of the sprayed target plants and/or soil.
The following examples illustrate the disclosed compositions and methods, but are not intended to limit the scope of any claims thereto. […] In the examples of Tables 1-3, target weeds were initially treated with glyphosate and any additional adjuvants as indicated in the tables. […] In the examples of Table 4, target soil was initially treated with dicamba and any additional adjuvants as indicated in the table, and then tomato plants were inserted into a ring of the treated soil for 24 hours. After 24 hours of sitting in the treated soil (i.e., during which time any volatilized herbicide from the soil could contact the tomato plants), the tomato plants were removed from the treated soil and grown on a laboratory bench.

[3] = system: GIANT FOXTAIL; test: Effect of DTPA, EDTA and other adjuvants on glyphosate efficacy on giant foxtail (% control); format: in vivo; details: combined experiments 1 and 2, 10 gpa, 25 psi
[4] = system: VELVETLEAF; test: Effect of DTPA on glyphosate efficacy on velvetleaf (% control); format: in vivo; details: Table 3, combined experiments 1, 2 and 3, 10 gpa, 25 psi, glyphosate 0.25 lb a.e./A
[5] = pH of the treatment solutions (Table 3); format: physicochemical; details: pH of treatment solution, DTPA treatments adjusted with KOH (5N)
[6] = tomato in treated soil ring: duration, dicamba 0.50 lb a.e./A
[7] = tomato inserted 1 DAT (in 1st DAT out 2nd DAT), 24 hours
[8] = tomato inserted 2 DAT (in 2nd DAT out 3rd DAT), 24 hours
[9] = tomato inserted 3 DAT (in 3rd DAT out 4th DAT), 24 hours
[10] = tomato inserted 4 DAT (in 4th DAT out 5th DAT), 24 hours
[11] = tomato inserted 7 DAT (in 7th DAT out 8th DAT), 24 hours
[12] = Table 2, glyphosate 0.275 (exp 1) / 0.20 (exp 2) lb a.e./A
[13] = Table 2, glyphosate 0.275 / 0.20 lb a.e./A
[14] = Table 1, glyphosate 0.20 (Run 1) / 0.25 (Run 2) lb a.e./A, pH adjusted to 5.5 with KOH
[15] = Table 1, glyphosate 0.20 / 0.25 lb a.e./A

CNC.O=C(O)COc1ccc(Cl)cc1Cl [2,4-D dimethylamine salt]
vapor pressure [1]: ~1.3×10^−5 Pa

CCCCOCCOC(=O)COc1ccc(Cl)cc1Cl [2,4-D butoxyethyl ester]
vapor pressure [1]: ~3.2×10^−4 Pa

COc1c(Cl)ccc(Cl)c1C(=O)O [DICAMBA DGA, 3,6-dichloro-2-methoxybenzoic acid]
% INJURY 7 DAT ([2]; tomato in treated soil ring: duration, dicamba 0.50 lb a.e./A on bare field soil kept wet, 20 gpa, 25 psi): 25%
% INJURY 10 DAT [2, 6]: 27%
% INJURY 14 DAT [2, 6]: 30%
% INJURY 21 DAT [2, 6]: 27%
% INJURY 28 DAT [2, 6]: 27%
% INJURY 7 DAT ([2]; tomato inserted 1 DAT (in 1st DAT out 2nd DAT), 24 hours, dicamba 0.50 lb a.e./A): 33%
% INJURY 10 DAT [2, 7]: 37%
% INJURY 14 DAT [2, 7]: 35%
% INJURY 21 DAT [2, 7]: 32%
% INJURY 28 DAT [2, 7]: 25%
% INJURY 7 DAT [2, 8]: 13%
% INJURY 10 DAT [2, 8]: 23%
% INJURY 14 DAT [2, 8]: 20%
% INJURY 21 DAT [2, 8]: 15%
% INJURY 28 DAT [2, 8]: 18%
% INJURY 7 DAT [2, 9]: 20%
% INJURY 10 DAT [2, 9]: 22%
% INJURY 14 DAT [2, 9]: 2%
% INJURY 21 DAT [2, 9]: 8%
% INJURY 28 DAT [2, 9]: 7%
% INJURY 7 DAT [2, 10]: 25%
% INJURY 10 DAT [2, 10]: 27%
% INJURY 14 DAT [2, 10]: 15%
% INJURY 21 DAT [2, 10]: 25%
% INJURY 28 DAT [2, 10]: 22%
% INJURY 7 DAT [2, 11]: 17%
% INJURY 10 DAT [2, 11]: 18%
% INJURY 14 DAT [2, 11]: 20%
% INJURY 21 DAT [2, 11]: 17%
% INJURY 28 DAT [2, 11]: 7%

O=C(O)CN(CCN(CC(=O)O)CC(=O)O)CC(=O)O [2 0% w/v EDTA, Ethylenediaminetetraacetic acid]
% CONTROL 7 DAT [3, 12]: 0%
% CONTROL 10 DAT [3, 13]: 0%
% CONTROL 14 DAT [3, 13]: 0%
% CONTROL 21 DAT [3, 13]: 0%

O=C(O)CN(CCN(CC(=O)O)CC(=O)O)CCN(CC(=O)O)CC(=O)O [2.0% w/v DTPA, Diethylenetriaminepentaacetic acid]
% CONTROL 7 DAT [3, 12]: 0%
% CONTROL 10 DAT [3, 13]: 3%
% CONTROL 14 DAT [3, 13]: 0%
% CONTROL 21 DAT [3, 13]: 3%

O=C(O)CN(CCN(CC(=O)O)CC(=O)O)CC(=O)O [1.0% w/v EDTA, Ethylenediaminetetraacetic acid]
% CONTROL 7 DAT [3, 12]: 0%
% CONTROL 10 DAT [3, 13]: 0%
% CONTROL 14 DAT [3, 13]: 0%
% CONTROL 21 DAT [3, 13]: 3%

CC(C)OC(=O)COc1ccc(Cl)cc1Cl [2,4-D isopropyl ester]
vapor pressure [1]: ~1.9×10^1 Pa

CCCCC(CC)COC(=O)COc1ccc(Cl)cc1Cl (centres unmarked) [2,4-D 2-ethylhexyl ester]
vapor pressure [1]: ~4.8×10^−4 Pa

O=C(O)CNCP(=O)(O)O [GLYPHOSATE, N-(phosphonomethyl)glycine]
% CONTROL 7 DAT [3, 14]: 39%
% CONTROL 10 DAT [3, 15]: 37%
% CONTROL 14 DAT [3, 15]: 40%
% CONTROL 21 DAT [3, 15]: 34%
% CONTROL 7 DAT [3, 12]: 49%
% CONTROL 10 DAT [3, 13]: 48%
% CONTROL 14 DAT [3, 13]: 48%
% CONTROL 21 DAT [3, 13]: 45%
% CONTROL 7 DAT [4]: 12%
% CONTROL 10 DAT [4]: 12%
% CONTROL 14 DAT [4]: 10%
% CONTROL 21 DAT [4]: 6%
pH [5]: 4.7

O=C(O)CN(CCN(CC(=O)O)CC(=O)O)CCN(CC(=O)O)CC(=O)O [1.0% w/v DTPA, Diethylenetriaminepentaacetic acid]
% CONTROL 7 DAT [3, 14]: 1%
% CONTROL 10 DAT [3, 15]: 5%
% CONTROL 14 DAT [3, 15]: 6%
% CONTROL 21 DAT [3, 15]: 1%
% CONTROL 7 DAT [3, 12]: 0%
% CONTROL 10 DAT [3, 13]: 0%
% CONTROL 14 DAT [3, 13]: 0%
% CONTROL 21 DAT [3, 13]: 3%
% CONTROL 7 DAT [4]: 0%
% CONTROL 10 DAT [4]: 0%
% CONTROL 14 DAT [4]: 5%
% CONTROL 21 DAT [4]: 0%
